Data published in PubChem BioAssay (NCI).
Values joined by “and” are separate entries in the source; they are usually repeats but may differ in a detail not shown here. Identical values can stand only once.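 Dose response: 5 concentrations. Exposure: 48 h. Format: 96-well plates. Endpoint: linear interpolation; highest concentration if not reached. The concentration for 50% growth inhibition is given as GI50. Definition used: TGI = concentration required for complete inhibition of growth.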

How the values were obtained:
Experiment in all cases: NCI anticancer screen, dose series, 48 h
HOP-92 NSCLC = system: HOP-92 NSCLC
NCI-H460 lung = system: NCI-H460 lung
MCF7 breast = system: MCF7 breast
LOX IMVI melanoma = system: LOX IMVI melanoma
NCI-H522 lung = system: NCI-H522 lung
DU-145 prostate = system: DU-145 prostate
RPMI-8226 leukemia = system: RPMI-8226 leukemia
CCRF-CEM leukemia = system: CCRF-CEM leukemia
SN12C renal = system: SN12C renal
HCC-2998 colon = system: HCC-2998 colon

SMILES | TGI (HOP-92 NSCLC) [µM] | TGI (NCI-H460 lung) [µM] | TGI (MCF7 breast) [µM] | TGI (LOX IMVI melanoma) [µM] | TGI (NCI-H522 lung) [µM] | TGI (DU-145 prostate) | TGI (RPMI-8226 leukemia) [µM] | TGI (CCRF-CEM leukemia) [µM] | TGI (SN12C renal) [µM] | TGI (HCC-2998 colon) | GI50 (HOP-92 NSCLC) [µM] | GI50 (NCI-H460 lung) [µM] | GI50 (MCF7 breast) [µM] | GI50 (LOX IMVI melanoma) [µM] | GI50 (NCI-H522 lung) [µM] | GI50 (DU-145 prostate) | GI50 (RPMI-8226 leukemia) [µM] | GI50 (CCRF-CEM leukemia) [µM] | GI50 (SN12C renal) [µM] | GI50 (HCC-2998 colon)
COc1ccc(-c2cc3c(c4cc(OC)ccc24)C(=O)OC3=O)cc1 | > 100 | > 100 | > 100 | > 100 | > 100 | > 100 µM | > 100 | > 100 | > 100 | > 100 µM |  |  |  |  |  |  |  |  |  | 
CNC(=O)Nc1nc2ccc([N+](=O)[O-])cc2[nH]1 | > 100 | > 100 | > 100 | > 100 | > 100 | > 100 µM | > 100 | > 100 | > 100 | > 100 µM |  |  |  |  |  |  |  |  |  | 
O=C(O)CN(CC(=O)O)Cc1cc(C#Cc2ccc(C#Cc3ccccc3)cc2)cc(CN(CC(=O)O)CC(=O)O)n1 | 99.6 | 66.2 | 41.8 | 45.8 | 52 | > 100 µM | 48.8 | > 64.9 | > 100 | > 72.4 µM |  |  |  |  |  |  |  |  |  | 
CC[C@@H]1c2c(C#N)ncn2-c2cnc(Nc3ccc(C(=O)NC4CCN(C5CCN(CC6CC6)CC5)CC4)cc3OC)nc2N1C1CCCC1 | 1.83 | 1.28 | 1.2 | 1.06 | 0.126 | 0.072 µM and 0.246 µM | 2.97 | 1.58 | 1.91 | 1.09 µM and 0.162 µM | 0.0777 | 0.0354 | 0.00514 | 0.0368 | 0.023 | 0.0235 µM and 0.0353 µM | 0.083 | 0.00738 | 0.0916 | 0.04 µM and 0.0308 µM
CCOC(=O)N1CCN(/[N+]([O-])=N/Oc2ccc([N+](=O)[O-])cc2[N+](=O)[O-])CC1 | 3.75 | 18 | 8.16 | > 100 | 22.4 | 19.2 µM | 12.9 | 12.2 | 6.92 | 2.33 µM | 0.122 | 4.41 | 0.365 | 0.258 | 4.36 | 4.73 µM | 0.34 | 0.158 | 1.45 | 1.12 µM
Oc1c(-c2nnc(-c3ccccc3Cl)o2)sc2nnc(-c3ccccc3)c(-c3ccccc3)c12 |  | 15.3 | > 100 | 21.8 | 23.5 | > 100 µM | > 100 | > 100 | 90.5 | > 100 µM | 1.81 | 1.73 | 3.84 | 2.55 | 3.59 | 8.26 µM | 2.92 | 1.43 | 4.29 | 5.05 µM
CCOC(=O)Nc1ccc2c(c1)/C(=N\NC(N)=S)c1ccccc1-2 | 62.5 | 23.1 | 23.8 | 20.2 | 12.7 | 20 µM | 12.9 | 31.5 | 65.7 | 22.5 µM | 8.49 | 4.33 | 3.15 | 3.52 | 3.84 | 5.15 µM | 2.49 | 3.49 | 5.94 | 4.77 µM
C=C(C)[C@@H]1CC[C@]2(C)CC[C@]3(C)[C@H](CC[C@@H]4[C@@]5(C)CC[C@H](O)C(C)(C)[C@@H]5CC[C@]43C)[C@@H]12 | > 100 | > 100 | 55.2 | 36.3 | 55.7 | > 100 µM | > 100 | 48.9 | > 100 | > 100 µM |  |  |  |  |  |  |  |  |  | 
C/C(=N\NC(=S)N1CC2CCC(CC2)C1)c1nccs1 | 7.21 | 3.67 | 14 | 9.09 | 14 | 12.5 µM | 20.8 | 0.445 | 12.5 | 15.9 µM |  |  |  |  |  |  |  |  |  | 
COc1ccc2[nH]cc(-c3ccc(-c4c[nH]c5ccc(OC)cc45)s3)c2c1 | 19.5 | 9.32 | 27 | 5 | 4.46 | 18.4 µM | 21 | 13.6 | 33.6 | 5.13 µM | 4.64 | 2.88 | 4.72 | 2.2 | 1.56 | 4.87 µM | 2.83 | 0.345 | 11.1 | 2.4 µM
O=C1C(Cl)=C(Nc2cccc(F)c2)C(=O)N1Cc1ccc(Cl)cc1 | 26.2 |  | 7.91 | 3.41 | 13.3 | 8.44 µM | 14.2 | 11.1 | 4.81 | 4.88 µM | 11.4 | 1.08 | 1.06 | 0.649 | 3.09 | 2.67 µM | 0.502 | 0.118 | 0.825 | 0.935 µM
